Values of other authors, collected in patent US20230285429A1, “CANNABINOID ACID FORMULATIONS, DELIVERY SYSTEMS, AND METHODS OF USE” (Flora Growth U.S. Holdings Corp., priority 2022, published 2023).

Key:
[1] = molecular target: spike protein of SARS-CoV-2 (Severe acute respiratory syndrome coronavirus 2, UniProt P0DTC2)
[2] = fatty acids, intestinal lymph

| Structure (SMILES) | affinity for the spike protein [1] | percentage transported to the lymph system [2] |
| --- | --- | --- |
| C=C(C)[C@@H]1CCC(C)=C[C@H]1c1c(O)cc(CCCCC)c(C(=O)O)c1O [CBDA, cannabidiolic acid] | high affinity |  |
| CCCCCc1cc(O)c(C/C=C(\C)CCC=C(C)C)c(O)c1C(=O)O [CBGA, cannabigerolic acid] | high affinity |  |
| CCCCCCCCCC(=O)O [decanoic] |  | 13% |
| CCCCCCCCCCCC(=O)O [lauric] |  | 28% |
| CCCCC/C=C\C/C=C\CCCCCCCC(=O)O [linoleic] |  | 32% |
